Consider 13 compounds from PubChem BioAssay AID328 (DTP/NCI, 2004).

This assay has as its system BDF1 mice, P388 leukemia ip, median survival T/C. The assay is described as follows: NCI In Vivo Anticancer Drug Screen. Data for tumor model P388 Leukemia (intraperitoneal) in B6D2F1 (BDF1) mice. The note with it: endpoint: median survival time, higher = longer survival. The procedure, abridged:
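Transplantable tumour in mice; compound vs vehicle dosing; survival scored; ratio of treated to control reported.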

The mark [1] stands for this setting: dose: 50.0 mg/kg/injection, schedule: Q04DX003 (ip), vehicle: saline.
Where [2] appears, read: dose: 100.0 mg/kg/injection, schedule: Q04DX003 (ip), vehicle: saline.
Where [3] appears, read: dose: 100.0 mg/kg/injection, schedule: Q01DX009 (ip), vehicle: Klucel (hydroxypropylcellulose) (HPC).
Setting [4] is: dose: 200.0 mg/kg/injection, schedule: Q01DX009 (ip), vehicle: Klucel (hydroxypropylcellulose) (HPC).
Where [5] appears, read: dose: 400.0 mg/kg/injection, schedule: Q01DX009 (ip), vehicle: Klucel (hydroxypropylcellulose) (HPC).
Setting [6] is: dose: 100.0 mg/kg/injection, schedule: Q04DX003 (ip), vehicle: saline with Tween-80.
Where [7] appears, read: dose: 200.0 mg/kg/injection, schedule: Q04DX003 (ip), vehicle: saline with Tween-80.
Setting [8] is: dose: 400.0 mg/kg/injection, schedule: Q04DX003 (ip), vehicle: saline with Tween-80.
Setting [9] is: dose: 50.0 mg/kg/injection, schedule: Q01DX009 (ip), vehicle: saline with Tween-80.
[10] abbreviates: dose: 100.0 mg/kg/injection, schedule: Q01DX009 (ip), vehicle: saline with Tween-80.
[11] abbreviates: dose: 3.12 mg/kg/injection, schedule: Q01DX009 (ip), vehicle: saline with Tween-80.
Where [12] appears, read: dose: 6.25 mg/kg/injection, schedule: Q01DX009 (ip), vehicle: saline with Tween-80.
[13] abbreviates: dose: 12.5 mg/kg/injection, schedule: Q01DX009 (ip), vehicle: saline with Tween-80.
Where [14] appears, read: dose: 200.0 mg/kg/injection, schedule: Q01DX009 (ip), vehicle: saline with Tween-80.
Setting [15] is: dose: 400.0 mg/kg/injection, schedule: Q01DX009 (ip), vehicle: saline with Tween-80.
Setting [16] is: dose: 25.0 mg/kg/injection, schedule: Q01DX009 (ip), vehicle: saline with Tween-80.
The mark [17] stands for this setting: dose: 200.0 mg/kg/injection, schedule: Q04DX003 (ip), vehicle: saline.

Several values for one entry are separate records, joined by “and”; a condition that tells them apart may be missing. Equal entries are not always repeated. Inconclusive results and toxic doses are left out.

As for `CCNC1(c2ccc(Cl)cc2)CCCCC1=O` (centres undefined), the T/C reads like this: (dose: 25.0 mg/kg/injection, schedule: Q01DX009 (ip), vehicle: saline) 100 % of control; (dose: 50.0 mg/kg/injection, schedule: Q01DX009 (ip), vehicle: saline) 95 % of control and 100 % of control; under setting [1], 100 % of control; (dose: 100.0 mg/kg/injection, schedule: Q01DX009 (ip), vehicle: saline) 86 % of control; under setting [2], 95 % of control.

Consider `O=[N+]([O-])c1cccc(/C=C/c2ccccc2)c1`, for which the T/C is, setting by setting: (dose: 100.0 mg/kg/injection, schedule: Q01DX001 (ip), vehicle: Klucel (hydroxypropylcellulose) (HPC)) 100 % of control; under setting [3], 95 % of control; (dose: 200.0 mg/kg/injection, schedule: Q01DX001 (ip), vehicle: Klucel (hydroxypropylcellulose) (HPC)) 95 % of control; under setting [4], 95 % of control; (dose: 400.0 mg/kg/injection, schedule: Q01DX001 (ip), vehicle: Klucel (hydroxypropylcellulose) (HPC)) 90 % of control; under setting [5], 90 % of control.

On to `Cc1cc(OC(=O)Nc2cccc(Cl)c2C)ccc1Cl`, for which the T/C reads like this: under setting [6], 104 % of control; under setting [7], 104 % of control; under setting [8], 109 % of control.

With `COC(=O)C1=C(C)NC(C)=C(C(=O)OC)C1C(C)Cl` (centres undefined), the T/C was 118 % of control under setting [9] and 109 % of control under setting [10].

With `FC(F)(F)C(F)(F)C(F)(F)c1nc2nc(Cl)c(Cl)nc2[nH]1`, the T/C by setting is: under setting [11], 115 % of control; under setting [12], 105 % of control; under setting [13], 95 % of control; (dose: 50.0 mg/kg/injection, schedule: Q04DX003 (ip), vehicle: saline with Tween-80) 95 % of control; under setting [6], 90 % of control.

In the case of `Cc1ccc(C)c(NC(=O)c2ccccc2N)c1`, the T/C reads like this: under setting [3], 100 % of control; (dose: 100.0 mg/kg/injection, schedule: Q04DX003 (ip), vehicle: Klucel (hydroxypropylcellulose) (HPC)) 104 % of control; under setting [4], 100 % of control; (dose: 200.0 mg/kg/injection, schedule: Q04DX003 (ip), vehicle: Klucel (hydroxypropylcellulose) (HPC)) 104 % of control; under setting [5], 90 % of control; (dose: 400.0 mg/kg/injection, schedule: Q04DX003 (ip), vehicle: Klucel (hydroxypropylcellulose) (HPC)) 104 % of control.

As for `Cc1cc(=O)[nH]o1`, the T/C was 108 % of control under setting [9], 103 % of control under setting [10], 103 % of control under setting [14] and 113 % of control under setting [15].

As to `CCC(C)(CC(=O)O)CC(=O)O`, the T/C is 95 % of control under setting [11]; 112 % of control under setting [12]; 116 % of control under setting [13]; 87 % of control under setting [16]; 87 % of control under setting [9]; 110 % of control under setting [2]. In addition, the T/C was 120 % of control under setting [17] and 120 % of control (dose: 400.0 mg/kg/injection, schedule: Q04DX003 (ip), vehicle: saline).

Take `NC1CC2C=CCC(C1)C2` (centres undefined): the T/C was 95 % of control (dose: 37.5 mg/kg/injection, schedule: Q01DX001 (ip), vehicle: saline); 100 % of control (dose: 75.0 mg/kg/injection, schedule: Q01DX001 (ip), vehicle: saline); 100 % of control (dose: 150.0 mg/kg/injection, schedule: Q01DX001 (ip), vehicle: saline).

`COc1ccc(C(Cn2ccnc2)Sc2ccc(Cl)c(Cl)c2)cc1` (centres undefined): the T/C is, setting by setting: under setting [13], 105 % of control; under setting [16], 110 % of control; under setting [9], 120 % of control; under setting [10], 93 % of control and 119 % of control.

Regarding `O=[N+]([O-])c1ccc([I+]c2ccccc2)cc1`, the T/C is, setting by setting: (dose: 1.5 mg/kg/injection, schedule: Q04DX003 (ip), vehicle: saline sonified) 100 % of control; (dose: 5.5 mg/kg/injection, schedule: Q01DX009 (ip), vehicle: saline with Tween-80) 150 % of control; (dose: 8.25 mg/kg/injection, schedule: Q01DX009 (ip), vehicle: saline with Tween-80) 154 % of control; (dose: 12.0 mg/kg/injection, schedule: Q04DX003 (ip), vehicle: saline sonified) 118 % of control; (dose: 16.5 mg/kg/injection, schedule: Q04DX003 (ip), vehicle: saline) 150 % of control; under setting [16], 154 % of control. The T/C is, setting by setting: under setting [9], 150 % of control; under setting [10], 158 % of control; (dose: 100.0 mg/kg/injection, schedule: Q04DX003 (ip), vehicle: saline sonified) 150 % of control.

`Cn1c(/N=C(/N)N=C(N)N)cc(=O)n(C)c1=O`: the T/C was 104 % of control under setting [1], 100 % of control under setting [2] and 95 % of control under setting [17].

`COc1ccc(/C=C/C(=O)c2ccccc2)cc1`: the T/C by setting is: under setting [10], 97 % of control; under setting [6], 104 % of control; under setting [14], 98 % of control; under setting [7], 104 % of control; under setting [15], 98 % of control; under setting [8], 104 % of control.
